Laboratory results as given in US9637470B2, “Treatment for substance use disorders and stress disorders” (Baylor College of Medicine, priority 2013, dated 2017).
pIC50: −log10 of the molar value. “Also recorded” adds a separate entry of the source.

Legend:
CYP 3A4 = assay: CYP induction, 3A4; assay type: in vitro ADME
[1] = Chronic (13 week) toxicity testing in rats; details: rat, in vivo, read-out: no adverse effects level (NOAEL)
humans = assay: Positive subjective effects in humans (abuse potential)
[2] = system: 56 receptors, channels, and transporters; assay: Receptor binding studies, panel of 56 receptors, channels, and transporters; details: 10 μM; all sites except σ1 and 5-HT2B
Source text: Binding at σ1 is not problematic, as SSRIs are known to have similar activities.

[3] = PK, distribution and excretion in rat; assay type: in vivo; details: for half-life: in vivo
[4] = ADM&E studies: stability and protein binding; assay type: in vitro ADME
[5] = Metabolic stability in human liver microsomes; assay type: in vitro ADME
serotonin transporter = target: T1, serotonin transporter (Rattus norvegicus, UniProt P31652); assay: Monoamine uptake into rat synaptosomes, serotonin; assay type: biochemical
T1 construct: from tissue; host or cells: rat synaptosomes

CYP 1A2 = assay: CYP induction, 1A2; assay type: in vitro ADME
healthy volunteers [6] = assay: Single ascending dose study in healthy volunteers; assay type: in vivo, human
Description: A single ascending dose, double-blind, placebo controlled study enrolled 50 participants divided into 10 per dosing group. In each group of 10 volunteers, 7 received active medication and 3 received placebo. The doses tested were 10, 25, 75, 150, and 300 mg. […] Across most doses, the elimination half-life was […].

[7] = Chronic (13 week) toxicity testing in dogs; details: dog, in vivo, read-out: no adverse effects level (NOAEL)
Sprague-Dawley rats = assay: Methamphetamine-induced locomotor activation in rats; assay type: in vivo, rat; details: for locomotor activity, EC2 alone versus saline: 30.0 mg/kg IP; for METH-induced locomotor activation: EC2 30.0 mg/kg IP + METH 1 mg/kg
Source text: Adult male Sprague-Dawley rats (n=5-6/group, Harlan Sprague-Dawley Inc., Indianapolis, Ind., USA) were used in this study. Rats were housed three per cage in polypropylene cages in a temperature- and humidity-controlled room maintained on a 12:12 light/dark cycle (lights on at 7:00). Food and water were available ad libitum. Protocols were approved by the Baylor College of Medicine Institutional Animal Care and Use Committee and followed the “Principles of Laboratory Animal Care” (NIH publication No. 85-23, revised 1996). Facilities were accredited by the American Association of Laboratory Animal Care.
The TruScan photobeam activity system (Coulbourn Instruments, Allentown, Pa., USA) was used to measure horizontal and vertical distance traveled in centimeters (cm). This system includes a clear arena (16″L×16″W×15.5″D) that had two sets of infrared sensors with one located at floor level and the other 2.5″ above floor level. Data from beam breaks were tabulated and analyzed by a PC computer and using a Coulbourn Instruments software system (TruScan 2.03).
Drug solutions were prepared fresh daily. To test the effects of EC2 on METH locomotor activation, groups of rats were administered vehicle (saline), METH (1 mg/kg), EC2 (30.0 mg/kg) and EC2+METH. Pretreatment time was 30 min for EC2.
Testing began on the next day (day 1) and continued for the next five days. Rats were administered drugs according to group and immediately placed in the activity chambers for 60 min.
Data were first assessed with normality (Shapiro-Wilk) and equal variance tests. Distance traveled (cm), which reflects ambulatory activity, and vertical distance (cm) were the primary dependent variables analyzed. Habituation locomotor activity (baseline habituation, HAB) was assessed using a One-Way ANOVA with treatment as the main factor, and Student-Newman-Keuls Method was used for post-hoc comparisons. […] Dunn's method was used for post-hoc multiple comparisons between groups. Data are presented as mean±SEM and significant p values set at <0.05.
The preceding example was continued for 5 days. Data from day 5 passed normality and equal variance tests and were analyzed with One-Way ANOVA with treatment as the main factor. Post-hoc pairwise multiple comparison procedures were performed using Student-Newman Keuls Method was used to determine group differences. Data are presented as mean±SEM and significant p values set at <0.05.

CYP450 2C9 = CYP450 2C9 (Homo sapiens, UniProt P11712); assay: CYP450 inhibition, 2C9; assay type: in vitro ADME
[8] = Multiple ascending dose study in healthy volunteers; assay type: in vivo, human; details: human, plasma, daily doses up to 11 days, for most doses, read-out: elimination half-life during chronic treatment (converted)
Description: (§1) This double-blind, placebo controlled study enrolled 50 participants divided into 10 per dosing group. In each group of 10, 7 received active medication and 3 received placebo to maintain the blind. The doses tested were 25 mg BID, 75 mg QD, 50 mg BID, 75 mg BID, and 100 mg BID.

healthy volunteers [9] = assay: as above; assay type: in vivo, human; details: multiple dose
Description: as §1

CYP450 2C8 = CYP450 2C8 (Homo sapiens, UniProt P10632); assay: CYP450 inhibition, 2C8; assay type: in vitro ADME
dopamine transporter = target: T2, dopamine transporter (Rattus norvegicus, UniProt P23977); assay: Monoamine uptake into rat synaptosomes, dopamine; assay type: biochemical
T2 construct: from tissue; host or cells: rat synaptosomes
T2 sequence (P23977 whole entry): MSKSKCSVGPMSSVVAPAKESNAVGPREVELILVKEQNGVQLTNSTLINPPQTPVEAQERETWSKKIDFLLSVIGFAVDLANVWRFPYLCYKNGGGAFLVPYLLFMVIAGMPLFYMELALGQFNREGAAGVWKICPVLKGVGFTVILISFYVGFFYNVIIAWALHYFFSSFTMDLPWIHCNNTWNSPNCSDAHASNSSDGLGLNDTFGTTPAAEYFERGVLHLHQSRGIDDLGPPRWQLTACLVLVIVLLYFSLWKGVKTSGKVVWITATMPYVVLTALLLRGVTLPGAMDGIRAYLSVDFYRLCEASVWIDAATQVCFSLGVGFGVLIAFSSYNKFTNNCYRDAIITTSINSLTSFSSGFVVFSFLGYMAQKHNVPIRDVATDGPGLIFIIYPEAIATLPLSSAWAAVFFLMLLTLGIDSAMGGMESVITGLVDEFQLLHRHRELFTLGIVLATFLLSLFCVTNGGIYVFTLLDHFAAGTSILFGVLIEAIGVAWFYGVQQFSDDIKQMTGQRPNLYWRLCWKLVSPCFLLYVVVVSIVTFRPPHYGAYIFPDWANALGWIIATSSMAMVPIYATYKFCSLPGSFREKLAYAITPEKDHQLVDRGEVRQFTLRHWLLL

Chain of CYP450 2C8 (P10632 whole entry): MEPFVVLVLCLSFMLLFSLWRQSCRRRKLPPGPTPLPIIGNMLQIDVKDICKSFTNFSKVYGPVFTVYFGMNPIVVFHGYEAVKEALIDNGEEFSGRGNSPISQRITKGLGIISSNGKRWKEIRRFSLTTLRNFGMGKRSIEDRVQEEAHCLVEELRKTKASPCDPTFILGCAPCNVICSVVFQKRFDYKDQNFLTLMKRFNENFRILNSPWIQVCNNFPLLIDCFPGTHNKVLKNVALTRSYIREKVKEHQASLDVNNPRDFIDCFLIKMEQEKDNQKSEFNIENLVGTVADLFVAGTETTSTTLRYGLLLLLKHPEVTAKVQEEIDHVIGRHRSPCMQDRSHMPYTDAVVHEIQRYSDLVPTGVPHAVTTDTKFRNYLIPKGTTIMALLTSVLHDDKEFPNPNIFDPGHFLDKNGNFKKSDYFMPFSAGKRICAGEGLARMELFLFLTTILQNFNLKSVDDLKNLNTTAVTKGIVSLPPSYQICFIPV
Chain of CYP450 2C9 (P11712 whole entry): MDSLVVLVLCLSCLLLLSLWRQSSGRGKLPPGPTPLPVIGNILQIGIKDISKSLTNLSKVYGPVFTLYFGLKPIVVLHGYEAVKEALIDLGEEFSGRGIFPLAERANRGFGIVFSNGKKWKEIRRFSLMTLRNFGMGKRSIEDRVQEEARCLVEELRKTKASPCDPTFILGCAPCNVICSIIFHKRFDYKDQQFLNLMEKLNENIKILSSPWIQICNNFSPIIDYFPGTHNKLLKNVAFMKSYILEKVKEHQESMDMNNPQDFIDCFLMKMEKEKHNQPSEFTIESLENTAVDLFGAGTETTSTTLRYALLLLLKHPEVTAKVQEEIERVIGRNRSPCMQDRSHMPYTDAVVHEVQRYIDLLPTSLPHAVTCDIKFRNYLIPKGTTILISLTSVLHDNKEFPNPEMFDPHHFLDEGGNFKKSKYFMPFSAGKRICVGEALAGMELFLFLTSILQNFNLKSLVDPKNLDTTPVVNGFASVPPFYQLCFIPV
T1 sequence (P31652 whole entry): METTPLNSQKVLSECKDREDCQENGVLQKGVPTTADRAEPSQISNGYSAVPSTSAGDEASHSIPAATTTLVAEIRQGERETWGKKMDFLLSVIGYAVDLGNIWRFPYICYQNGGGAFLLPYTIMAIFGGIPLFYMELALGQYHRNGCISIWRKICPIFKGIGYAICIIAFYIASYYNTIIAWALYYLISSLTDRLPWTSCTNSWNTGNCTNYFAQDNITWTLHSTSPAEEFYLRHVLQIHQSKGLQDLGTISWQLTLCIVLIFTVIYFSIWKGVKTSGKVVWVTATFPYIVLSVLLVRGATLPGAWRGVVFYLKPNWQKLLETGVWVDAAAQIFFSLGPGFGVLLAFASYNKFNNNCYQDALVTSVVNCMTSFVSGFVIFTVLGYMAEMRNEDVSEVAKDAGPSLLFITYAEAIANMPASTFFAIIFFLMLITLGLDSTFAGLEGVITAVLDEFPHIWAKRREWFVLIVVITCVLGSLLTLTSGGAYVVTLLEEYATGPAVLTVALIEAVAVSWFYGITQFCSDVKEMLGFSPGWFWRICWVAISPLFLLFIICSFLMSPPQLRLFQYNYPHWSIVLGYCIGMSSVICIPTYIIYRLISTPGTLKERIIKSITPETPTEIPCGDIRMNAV

**Q.** Which results are given for `c1ccc2cc([C@H]([C@H]3CCCNC3)n3ncnn3)ccc2c1` [Example Compound 2, (3S)-3-[(S)-naphthalen-2-yl(2H-tetrazol-2-yl)methyl]piperidine]?
**A.** induction of CYP 3A4 (CYP 3A4): does not induce; NOAEL at 13 week [1]: 60 mg/kg; positive subjective effects in humans (humans): does not produce positive subjective effects; binding at the other sites of the panel [2]: no significant binding; Kp ([3]; brain, rat, after oral dosing, read-out: AUC ratio (brain/plasma)): 0.45; accumulation in tissue ([3]; rat, after oral administration): does not accumulate; also recorded: without significant accumulation; tissue distribution ([3]; rat, after oral administration): widely distributed across most tissues; half-life ([3]; rat, T1/2): 3.7 h; half-life ([3]; rat, po, elimination half-life in brain): 12.6 h; half-life ([3]; rat, po, elimination half-life in plasma): 5 h; route of excretion ([3]; rodents): mainly excreted in feces; protein binding [4]: modest; stability [4]: stable; metabolic stability [5]: high; pIC50 (serotonin transporter): 7.43; induction of CYP 1A2 (CYP 1A2): does not induce; plasma concentration versus dose (healthy volunteers [6]; single dose 10, 25, 75, 150, and 300 mg): proportional to dose; primary adverse effects (healthy volunteers [6]; single dose, increasing in prevalence at 75 mg and higher): nausea, dizziness, and headache; safety (healthy volunteers [6]; single doses up to 300 mg): safe; NOAEL at 13 week [7]: 6 mg/kg; locomotor activity, EC2 alone versus saline (Sprague-Dawley rats; day 5, both activity measures): did not differ from saline; locomotor activity, EC2 alone versus saline (Sprague-Dawley rats; over 5 days, both activity measures): did not differ from saline; METH-induced locomotor activation (Sprague-Dawley rats; day 5, more apparent on vertical distance): significantly attenuated; METH-induced locomotor activation (Sprague-Dawley rats; over 5 days, more apparent on vertical distance): significantly attenuated; inhibition of CYP450 2C9 (CYP450 2C9): does not inhibit; half-life [8]: ~6 h; effects on vital signs or on QTc (healthy volunteers [9]): no effects; primary adverse events (healthy volunteers [9]): nausea, vomiting and headache; plasma concentration versus dose (healthy volunteers [9]; across all doses): proportional to dose; inhibition of CYP450 2C8 (CYP450 2C8): does not inhibit; pIC50 (dopamine transporter): 7.13
